Test results: article PMC12588083, “Validated antimalarial drug target discovery using genome-scale metabolic modeling” (Antimicrobial Agents and Chemotherapy, 2025)

How the values were obtained:
[1] = target: recombinant PfUCK (P. falciparum UMP-CMP kinase, PfUCK-Δ23) (Plasmodium falciparum, UniProt Q8I231); assay: Inhibition constant (Ki) determination, coupled PK/LDH NADH assay, recombinant PfUCK; format: biochemical; details: for Ki—PfUCK: Table 4, benzoylacetonitrile derivatives, 1 mM CMP, competitive equation
Procedure: The hydrophobic core at the protein’s N-terminus may cause poor expression and low solubility in E. coli. Therefore, a truncated gene was created where the ORF began at amino acid residues 24–371, encoding a 348 amino acid protein. […] Briefly, protein expression was induced with isopropyl-D-thiogalactoside, incubated at 16°C with shaking at 200 RPM for 20 hours, and the cell pellet resuspended in binding buffer (50 mM Tris [pH 7.6], 300 mM NaCl, 20 mM imidazole, 5% glycerol, and 0.075% β-mercaptoethanol), with cell disruption using an Avestin C3 Cell Disrupter. Cell debris was removed, and the UCK was purified by Ni-NTA affinity purification. The protein was eluted from the column using a linear gradient of imidazole ([…]) in elution buffer (50 mM Tris [pH 7.6], 300 mM NaCl, 5% glycerol, and 0.075% β-mercaptoethanol). […] The concentrated protein was then stored at −70°C in a storage buffer (25 mM Tris-HCl, 50 mM KCl, and 20% glycerol; pH 7.0).
The final concentration of dimethyl sulfoxide (Merck, Catalog number 472301) in the assay reaction was maintained at 1%.

[2] = tested on: P. falciparum 3D7; assay: Antiplasmodial activity (IC50), SYBR Green fluorescence, 48 hours; format: cell-based, Plasmodium falciparum
Procedure: P. falciparum 3D7 parasites underwent two synchronization cycles with D-sorbitol initiating the inhibitor testing. Parasitemia and hematocrit were adjusted to 0.5% and 3%, respectively. Synchronized ring parasites were cultured in 96-well plates in complete RPMI medium with varying inhibitor concentrations. Inhibitor stock solutions, mostly at 100 mM, were prepared in DMSO. […] Triplicate wells were prepared for each compound. Negative controls included wells with uninfected red cells (3% hematocrit) in complete RPMI medium.
Culture plates were incubated in a chamber with controlled gas conditions at 37°C. After 48 hours, parasites were quantified using a fluorescence-based assay with SYBR Green dye as previously described ([51]). Lysis buffer containing SYBR Green was added to each well, and plates were incubated at room temperature for 45 minutes and protected from the light. Fluorescence was measured using a microplate reader (POLARstar OPTIMA, BMG Labtech) with excitation at 485 nm and detection at 520 nm. Background fluorescence of uninfected red cells was subtracted, and dose-response curves were plotted against inhibitor concentration. IC50 values were determined using nonlinear regression curve fitting in GraphPad Prism software.

[3] = tested on: synchronised Plasmodium falciparum 3D7 cultures; assay: In vitro flux measurements of glucose and amino acids in spent media; format: cell-based; details: ± SD, positive = into infected red blood cell, negative = efflux into media
Procedure: Cultures were synchronized with 5% sorbitol ([36]). Synchronized cultures with a total volume of 18 mL at 1% parasitemia and 5% hematocrit were placed in nonvented 75 cm^2 tissue culture flasks (Nunclon). Red blood cells at 5% hematocrit were used as control. One milliliter of culture was collected at time 0 and every 6 hours until 48 hours post synchronization. The collected sample was placed in a 1.5 mL microcentrifuge tube and centrifuged at 3,000 RPM for 2 minutes. The spent media were collected and stored at −80°C prior to analysis. Three biological replicates were analyzed.
A glucose assay on the spent media was performed using a glucose oxidase-peroxidase format assay kit (Megazyme). Amino acid concentrations in the spent media were determined using an Ultimate 3000 High-Performance Liquid Chromatography system (Dionex, UK). A ramp gradient reverse-phase chromatography was done with an Acclaim 120 C18 (Dionex, UK) 100 × 2.1 mm column (3 µm particle size, 120 Å pore size) stationary phase. Eluent A (10 mM Na2HPO4, 10 mM Na2HB4O7·10 H2O, 0.5 mM NaN3, pH 8.2) and eluent B (45% methanol [vol/vol] 45% acetonitrile [vol/vol] in water) constituted the mobile phase (Table S1).
Samples were derivatized manually within 10 minutes prior to chromatography. The derivatization procedure was done in a 1.5 mL microcentrifuge tube at room temperature by adding the following reagents in this particular order:
Spent media for both infected and uninfected (control) samples were assayed for glucose and amino acid concentrations as detailed above. The net metabolite flux from time 0 ( t0 ) to time n ( tn ) was calculated using the formula:
fluxt0-tn=vt0×∆Ci-∆Cu/gDWt0×∆t
The parasite mass gDWt0 was determined using the calculated number of parasites based on the parasitemia, hematocrit, and the volume at t0 :
In this case, it was assumed for simplicity that each infected RBC contained only one parasite. […] Flux calculations were done to represent the three main blood stage forms: the change in concentration from t6 to t18 was used to calculate the early to mid-ring stage flux, from t30 to t36 for the late trophozoite, and from t42 to t48 for the late schizont stage. […] A positive flux represents the entry of metabolites into the model, while a negative flux represents the movement of metabolites into the external environment.
Supplementary Table 5 Experimental glucose and amino acid flux measurements. […] A positive flux indicates movement of the metabolite into the infected red blood cell while a negative flux indicates efflux of the metabolite into the media.

[4] = Plasmodium falciparum, 3D7, 48 h, Supplementary Table 7, benzoylacetonitrile derivatives
[5] = Supplementary Table 7, benzoylacetonitrile derivatives

Sequence of recombinant PfUCK (P. falciparum UMP-CMP kinase, PfUCK-Δ23) (Q8I231 entry or part of it, stated change not applied): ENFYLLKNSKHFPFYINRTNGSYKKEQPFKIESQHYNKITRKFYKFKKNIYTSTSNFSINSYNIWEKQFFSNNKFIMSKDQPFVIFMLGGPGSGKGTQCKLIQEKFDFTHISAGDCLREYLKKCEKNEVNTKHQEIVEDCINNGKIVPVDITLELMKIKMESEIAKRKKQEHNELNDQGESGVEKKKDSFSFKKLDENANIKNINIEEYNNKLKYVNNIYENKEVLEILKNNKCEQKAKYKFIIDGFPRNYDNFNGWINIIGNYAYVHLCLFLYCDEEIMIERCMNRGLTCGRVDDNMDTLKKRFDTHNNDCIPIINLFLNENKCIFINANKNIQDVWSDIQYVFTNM

COc1ccc(C(=O)CC#N)cc1 [Compound C8]
Ki—PfUCK [1]: no inhibition at 1 mM

COC(=O)c1ccc(C(=O)CC#N)cc1 [Compound C9]
Ki—PfUCK [1]: insoluble

N#CCC(=O)c1ccc(Cl)cc1 [Compound C10]
Ki—PfUCK [1]: No inhibition at 1 mM

N#CCC(=O)c1ccccc1 [Compound C11]
Ki—PfUCK [1]: No inhibition at 1 mM

N#CCC(=O)c1cccc(Br)c1 [Compound C37]
Ki—PfUCK [1]: no inhibition at 1 mM

C=CC(=O)N1CCC(C(=O)NCc2cc(=O)n3ccccc3n2)CC1 [Compound C58]
Ki [1]: 2.11 ± 0.21 µM
IC50 ([2]; Plasmodium falciparum, 3D7, 48 h, Table 5): > 1000 µM

N#CCC(=O)c1cc(Cl)cc(Cl)c1 [Compound C62]
Ki—PfUCK [1]: No inhibition at 1 mM

N#CCC(=O)c1cccc(Cl)c1Cl [Compound C64]
Ki—PfUCK [1]: No inhibition at 1 mM

COc1cccc(C(=O)CC#N)c1 [Compound C65]
Ki—PfUCK [1]: no inhibition at 1 mM

Cc1cccc(C(=O)CC#N)c1 [Compound C66]
Ki—PfUCK [1]: No inhibition at 1 mM
IC50 [2, 4]: > 310 µM
IC50 [2, 5]: 310 ± 57.9 µM

N#CCC(=O)c1cncc(Br)c1 [Compound C67]
Ki [1]: 4.38 ± 1.45 µM
IC50 [2, 4]: 531 ± 61.2 µM

N#CCC(=O)c1cccc(C(F)(F)F)c1 [Compound C69]
Ki—PfUCK [1]: No inhibition at 1 mM

N#CCC(=O)c1ccc(CN2CCOCC2)cc1 [Compound C77]
Ki—PfUCK [1]: No inhibition at 1 mM

N#CCC(=O)c1ccc(-c2ccccc2)cc1 [Compound C79]
Ki—PfUCK [1]: No inhibition at 1 mM

N#CCC(=O)c1cccc([N+](=O)[O-])c1 [Compound C80]
Ki—PfUCK [1]: No inhibition at 1 mM

N#CCC(=O)c1cc(C(F)(F)F)cc(C(F)(F)F)c1 [Compound C83]
Ki [1]: 4.66 ± 0.29 µM
IC50 [2, 4]: > 310 µM
IC50 [2, 5]: 317 ± 50.8 µM

OC[C@H]1OC(O)[C@H](O)[C@@H](O)[C@@H]1O (stereo partly drawn) [D-Glucose]
flux 6 - 18 hps ([3]; early to mid-ring stage): 1.3 ± 0.82 mmol/gDW/hr
flux 42 - 48 hps ([3]; late schizont stage): 0.60 ± 0.21 mmol/gDW/hr
flux 30 - 36 hps ([3]; late trophozoite stage): 3.2 ± 1.2 mmol/gDW/hr
